From patent publication US5917057A, “N-hydroxy-dibenz[b,e]oxepinalkylamines, n-hydroxy-dibenz[b,e]oxepinalkanoic acid amides and related heterocyclic analogues” (Hoechst Marion Roussel, Inc., priority 1998, dated 1999)
pIC50: −log10 of the molar value.

Experiments:
5-lipoxygenase = molecular target: T1, 5-lipoxygenase (Rattus norvegicus, UniProt P12527); assay: In Vitro 5-Lipoxygenase Assay (5-HETE); type: biochemical; conditions: RBL-1 cell-free supernatant, 10 μM arachidonic acid, 37° C.
T1 construct: cell-free 5-lipoxygenase enzyme obtained from rat basophilic leukemia (RBL-1) cells; endogenous in cells; host or cells: RBL-1 rat basophilic leukemia cells, cell-free supernatant of sonicated cells
T1 sequence (P12527 1-673): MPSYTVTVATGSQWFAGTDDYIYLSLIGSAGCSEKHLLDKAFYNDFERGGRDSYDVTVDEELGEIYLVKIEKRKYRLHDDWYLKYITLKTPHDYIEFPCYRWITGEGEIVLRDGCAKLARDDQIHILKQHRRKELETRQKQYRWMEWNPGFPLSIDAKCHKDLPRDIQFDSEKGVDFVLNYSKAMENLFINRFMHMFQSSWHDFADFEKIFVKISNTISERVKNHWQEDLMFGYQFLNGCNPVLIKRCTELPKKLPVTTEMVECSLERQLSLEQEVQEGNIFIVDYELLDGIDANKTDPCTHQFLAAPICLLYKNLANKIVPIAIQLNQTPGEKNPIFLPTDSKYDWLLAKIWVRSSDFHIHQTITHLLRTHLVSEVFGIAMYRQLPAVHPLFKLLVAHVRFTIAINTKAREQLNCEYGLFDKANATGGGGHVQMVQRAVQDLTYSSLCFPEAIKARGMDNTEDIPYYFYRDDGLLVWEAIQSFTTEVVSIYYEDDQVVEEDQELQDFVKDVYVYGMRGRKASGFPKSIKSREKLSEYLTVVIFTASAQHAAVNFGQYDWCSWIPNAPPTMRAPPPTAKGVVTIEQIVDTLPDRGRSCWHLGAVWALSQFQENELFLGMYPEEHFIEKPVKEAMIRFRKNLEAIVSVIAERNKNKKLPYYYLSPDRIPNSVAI
Method: The ability of a compound to reduce 5-HETE production by cell-free 5-lipoxygenase enzyme obtained from rat basophilic leukemia (RBL-1) cells was measured by a modified procedure of Cochran et al. [Biochem. Biophys. Res. Commun., 161, 1327 (1989)]. RBL-1 cell-free supernatants were prepared by a modification of the method of Jakschik et al., [Prostaglandins, 25, 767 (1983)]. Cells (1×10^9) were collected by centrifugation (22°) and washed at […] with 50 mM phosphate buffer at 5×10^7 cells/ml. Cells were lysed on ice for 45 seconds with a Teckmar sonic disrupter. The homogenate was centrifuged (4° C) for 25 minutes and the supernatant (5 μg protein/μl) was decanted and stored at -80° C. A 1% dimethylsulfoxide (DMSO) vehicle (DMSO in deionized water) was utilized at various concentrations of the test compound. Duplicate reactions were run in 35mM buffer in the presence of 5 μM ATP, 50 μM CaCl2 and 10 μM arachidonic acid at 37° C. The reaction was terminated with 10 μl 0.3 citrate buffer and diluted with BGGE buffer (0.01M phosphate, 0.1% bovine gamma globulin, pH 8.5) containing 114 μM BHT with ice bath cooling. 5-Hydroxyeicosatetraenoic acid (5-HETE) levels were quantitated by radioimmunoassay according to standard procedures.

[1] = system: ear edema induced by topical application of TPA (phorbol 12-myristate acetate); assay: TPA-Induced Ear Edema (TPAEE); type: in vivo, Female Swiss Webster mice; conditions: 10 μg/ear topical; TPA 10 μg/ear; about 5 hours; relative to control
Method: TPA-Induced Ear Edema (TPAEE)
The purpose of this assay was to determine the ability of a topically applied compound to prevent ear edema induced by topical application of TPA (phorbol 12-myristate acetate). Female Swiss Webster mice topically received TPA (10 μg/ear) on the right ear and vehicle on the left ear. The test compound (10 μg/ear) was applied to both ears. After about 5 hours, the animals are sacrificed and a 4 mm diameter plug is taken from each ear and weighed. The difference between the right and left ear plug weights for each animal was determined. The antiinflammatory activity of the test compound is expressed as the mean percent change in ear plug weight of the treated animals compared to the mean percent change in the plug weight of the control animals. (Standard: Indomethacin:--86% at 1 mg/ear). Young, J. M. et al., J. Invest. Dermatol., 80 (1983), pp. 48-52.

[2] = system: mouse ear edema induced by topical application of arachidonic acid; assay: Arachidonic Acid-Induced Mouse Ear Edema (AAEE); type: in vivo, Female Swiss Webster mice; conditions: 1 mg/ear topical, 30 min before arachidonic acid 4 mg/ear; relative to control
Method: Arachidonic Acid-Induced Mouse Ear Edema (AAEE)
The purpose of this assay was to determine the ability of a topically applied compound to prevent mouse ear edema induced by topical application of arachidonic acid. Female Swiss Webster mice topically received vehicle or test compound (1.0 mg/ear) on both ears (10 μl on outer and inner ears). After 30 minutes, arachidonic acid is applied to the right ear of each mouse of each group in the amount of 4 mg/ear. Vehicle is applied to the left ear of each mouse of each group at a volume of 20 μl/ear. After an additional hour, the mice are sacrificed and a 4 mm plug is taken from each ear and weighed. The difference between the right and left ear plugs was determined for each animal. The antiinflammatory activity of the test compound is expressed as the mean percent change in the ear plug weight of the treated animals relative to the mean percent change in weights of control animals' ear. (Standard: Indomethacin--90% at 1 mg/ear). Young, J. M. et al., Invest. Dermatol., 80, (1983), pp. 48-52.

[3] = system: cyclooxygenase metabolite (PGE2) formation in cultured 3T3 mouse fibroblasts (CCL92-3T3); assay: In Vitro Cyclooxygenase Assay (PGE2); type: cell-based; conditions: Fibroblast, 24 hours; for pIC50: radioimmunoassay
Method: The ability of a compound to reduce cyclooxygenase metabolite formation in cultured 3T3 mouse fibroblasts (CCL92-3T3) was measured by radioimmunoassay of prostaglandin E2 (PGE2) levels in the culture media. The 3T3 cells were maintained in complete Dulbecco's Modified Eagles Medium (DMEM) containing 10% calf serum, 2 mM L-glutamine and 5000 units/ml of penicillin/streptomycin. After seeding in 24 mm tissue culture dishes at […], the cells were cultured for 24 hours. Media was removed by aspiration and replaced with DMEM (1 ml/well, 4 wells/treatment) containing test compound, which was previously dissolved in ethanol, or vehicle at various concentrations. The cells were then incubated for 24 hours and PGE2 levels in the media were quantitated by radioimmunoassay according to established procedure (Lingren et al., FEBS Lett., 48, 22). The mean value from duplicate determinations was utilized to assess the % change from control values for each treatment group.

[4] = system: naja naja (snake venom) phospholipase A2 (PLA2)-induced paw edema; assay: Phospholipase A2-Induced Paw Edema (PIPE); type: in vivo, male Wistar rats; conditions: subplantar; for PIPE 0.1M: 0.1 M test compound injected with PLA2 (3 units/100 μl/paw), rat left hindpaw, two hours; for PIPE ED50: standards, rat hindpaw
Method: Phospholipase A2 -Induced Paw Edema (PIPE)
The ability of compounds to reverse naja naja (snake venom) phospholipase A2 (PLA2)-induced paw edema in male Wistar rats (100-125 gm) was measured. PLA2 (3 units/100 μl dH2 O/paw) alone or with 0.1 M of the test compound was injected in the subplantar region of the rat left hindpaw. Immediately following injection and at two hours post administration, the paw was immersed in a mercury bath, and paw displacement was measured on a recorder via a transducer. The value was then converted to mm Hg. […] Giessler, A. J. et al., "Agents and Actions", Vol. 10, "Trends in Inflammation Research" (1981), p. 195.

[5] = system: phenyl-para-quinone induced writhing; assay: phenyl-para-benzoquinone writhing assay in mice (analgesia); type: in vivo; conditions: at 20 mg/kg
Excerpt: The compounds of the present invention are also useful as analgesic agents due to their ability to alleviate pain in mammals. […] Exptl. Biol. Med., 95, 729 (1957)].

SMILES	pIC50 (5-lipoxygenase)	TPAEE percent change [1]	AAEE % Change [2]	pIC50 [3]	PIPE 0.1M [4]	% Inhibition of Writhing [5]	PIPE ED50 [4]	inhibition at 1 µM ([3]; @1 μM, read-out: PGE2 % change)
CN(O)CCc1ccc2c(c1)C(=O)c1ccccc1CO2 [2-(6,11-Dihydro-11-oxodibenz[b,e]oxepin-2-yl)-N-hydroxy-N-methyl-ethylamine]	6.62	-50%	-46%	7.00	-70	–	–	–
CCN(O)CCc1ccc2c(c1)Cc1ccccc1CO2 [2-(6,11-Dihydrodibenz[b,e]oxepin-2-yl)-N-ethyl-N-hydroxyethylamine]	6.55	-84%	-50%	–	–	–	–	–
O=C1c2ccccc2COc2ccc(CCC(=O)N(O)C3CCCCC3)cc21 [3-(6,11-Dihydro-11-oxodibenz[b,e]oxepin-2-yl)-N-cyclohexyl-N-hydroxypropanamide]	–	–	–	–	–	76%	–	–
CN(O)C(=O)CCc1ccc2c(c1)C(=O)c1ccccc1CO2 [3-(6,11-Dihydro-11-oxodibenz[b,e]oxepin-2-yl)-N-hydroxy-N-methylpropanamide]	7.30	-71%	-63%	6.11	-46	–	–	–
CN(O)C(=O)CCc1ccc2c(c1)Cc1ccccc1CO2 [3-(6,11-Dihydro-dibenz[b,e]oxepin-2-yl)-N-hydroxy-N-methylpropanamide]	7.10	–	-67%	6.00	–	–	–	–
C[C@]12CCC(=O)C=C1CC[C@@H]1[C@@H]2[C@@H](O)C[C@@]2(C)[C@H]1CC[C@]2(O)C(=O)CO [Hydrocortisone, reference compound]	–	–	–	–	–	–	0.46 M	–
CC(C)Cc1ccc(C(C)C(=O)O)cc1 (centres unmarked) [Ibuprofen, reference compound]	–	–	–	7.66	–	–	–	–
O=C1c2ccccc2COc2ccc(CC(=O)N(O)C3CCCCC3)cc21 [N-Cyclohexyl-2-(6,11-dihydro-11-oxodibenz[b,e]oxepin-2-yl)-N-hydroxyacetamide]	6.30	-52%	-29%	–	-85	68%	–	17%
CCN(CC)CCCC(C)Nc1c2ccc(Cl)cc2nc2ccc(OC)cc12 (centres unmarked) [Quinacrine, reference compound]	–	–	–	–	–	–	0.1 M	–
